Test results published in PubChem BioAssay (NCI).
Several values for one entry are separate records, joined by “and”; a condition that tells them apart may be missing. Equal values may be shown once.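 Briefly, cells in 96-well plates were exposed to five compound concentrations for 48 h, and endpoints were estimated by linear interpolation. GI50: concentration for 50% inhibition of growth. The concentration for full growth arrest is given as TGI.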

Columns and labels:
Assay in all cases: NCI anticancer screen, dose series, 48 h
[1] = system: RXF 393 renal
[2] = system: NCI-H460 lung
[3] = system: NCI-H522 lung
[4] = system: U251 CNS
[5] = system: SF-268 CNS
[6] = system: A498 renal
[7] = system: 786-0 renal
[8] = system: TK-10 renal
[9] = system: IGROV1 ovarian
[10] = system: SNB-75 CNS

SMILES	TGI [1]	TGI [2]	TGI [3]	TGI [4]	TGI [5]	TGI [6]	TGI [7]	TGI [8]	TGI [9]	TGI [10]	GI50 [1]	GI50 [2]	GI50 [3]	GI50 [4]	GI50 [5]	GI50 [6]	GI50 [7]	GI50 [8]	GI50 [9]	GI50 [10]
COc1cc(CC(=O)O)c([N+](=O)[O-])cc1OC	> 100000 nM	> 100000 nM	> 100000 nM	> 100000 nM	> 100000 nM	> 100000 nM	> 100000 nM	> 100000 nM	> 100000 nM	> 100000 nM										
CC/C(=C(/c1ccc(OCCN(C)C)cc1)c1ccc(OC(=O)CCCCCCCCC(=O)c2c(C)[nH]c(/C=C3\N=C(c4ccc[nH]4)C=C3OC)c2C)cc1)c1ccccc1	> 100000 nM	> 100000 nM	> 100000 nM	> 100000 nM	> 100000 nM	72000 nM	> 100000 nM	> 100000 nM	> 100000 nM	> 100000 nM	13900 nM	4260 nM	21200 nM	4200 nM	6630 nM	15000 nM	5190 nM	21000 nM	23100 nM	6250 nM
CCC(C)C1NC(=O)C(NC(=O)C(CC(C)C)N(C)C(=O)[C@@H]2CC(O)CN2C(=O)[C@H](C)O)C(C)OC(=O)[C@H](Cc2ccc(OC)cc2)N(C)C(=O)[C@@H]2CCCN2C(=O)[C@H](CC(C)C)NC(=O)C(C)C(=O)[C@H](C(C)C)OC(=O)CC1O (some centres undefined)	481 nM and 112 nM	1160 nM and 1400 nM	902 nM and 234 nM	1630 nM and 677 nM	1700 nM and 1040 nM	4840 nM and 3010 nM	1700 nM and 2280 nM	4520 nM and 2050 nM	1400 nM and 312 nM	1250 nM and 614 nM	< 10 nM	19 nM	20.8 nM	< 10 nM	45.1 nM	325 nM	76.2 nM	224 nM	19.1 nM	33.8 nM
Cc1c(Cl)c(C)c(Cl)c(O)c1Cl	> 100000 nM	65800 nM	50700 nM	37700 nM	> 100000 nM	68700 nM	> 100000 nM	82300 nM	> 100000 nM	> 100000 nM										
O=C(Nc1cccc(-n2cc(-c3ccncc3)c(-c3ccc(Cl)c(O)c3)n2)c1)Nc1ccc(Cl)c(Cl)c1	6400 nM	3570 nM	10600 nM	9680 nM	10900 nM	3170 nM	> 32500 nM	> 32500 nM	> 32500 nM	12200 nM	1000 nM	993 nM	1190 nM	1510 nM	1490 nM	940 nM	7220 nM	1910 nM	1770 nM	1090 nM
CC[C@@]1(O)C(=O)OCc2c1cc1n(c2=O)Cc2c-1nc1cc(F)c(C)c3c1c2[C@@H](NC(=O)CO)CC3	73.1 nM	1270 nM	328 nM	1760 nM	1950 nM	51.6 nM	439 nM	7430 nM	1920 nM	133 nM	< 10 nM	< 10 nM	< 10 nM	< 10 nM	< 10 nM	< 11 nM	< 10 nM	400 nM	44.9 nM	< 10 nM
Cc1cc(-c2cc(OC(=O)c3ccccc3)ccc2Cl)cc2nnc(Nc3ccc(OCCN4CCCC4)cc3)nc12	2480 nM	3300 nM	3080 nM	3160 nM	3750 nM		3500 nM	3030 nM	3780 nM	1890 nM	1160 nM	1720 nM	1370 nM	1650 nM	1880 nM	9840 nM	1890 nM	1630 nM	1760 nM	508 nM
